Test results published in BindingDB's records for doi:10.1016/j.bmcl.2006.09.026 (Mediquest Therapeutics, 2006).

What follows are compounds tested against Transcription factor p65 (Human, UniProt Q04206) (assay: Inhibition of NF-kappaB in human HEK293 cells).
Chain of Transcription factor p65 (Q04206 whole entry): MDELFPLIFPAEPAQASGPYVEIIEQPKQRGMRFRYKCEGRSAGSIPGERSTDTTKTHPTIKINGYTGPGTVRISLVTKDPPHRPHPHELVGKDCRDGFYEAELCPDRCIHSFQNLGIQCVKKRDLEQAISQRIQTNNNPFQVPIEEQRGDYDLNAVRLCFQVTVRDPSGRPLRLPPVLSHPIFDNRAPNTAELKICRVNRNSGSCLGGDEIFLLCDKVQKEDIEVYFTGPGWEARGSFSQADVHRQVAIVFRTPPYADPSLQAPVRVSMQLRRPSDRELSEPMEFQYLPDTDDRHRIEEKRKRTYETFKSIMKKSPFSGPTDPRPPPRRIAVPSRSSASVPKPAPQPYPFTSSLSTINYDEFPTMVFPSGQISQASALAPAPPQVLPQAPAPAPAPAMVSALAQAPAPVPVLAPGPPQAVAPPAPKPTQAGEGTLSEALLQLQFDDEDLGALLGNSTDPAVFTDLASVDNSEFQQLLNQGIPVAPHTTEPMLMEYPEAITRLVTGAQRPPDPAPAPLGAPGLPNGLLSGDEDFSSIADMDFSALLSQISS

IC50 [µM] | SMILES
0.23 | CCCCCCCCCCCCCCCCS(=O)(=O)NCCCNCCCCNCCCN [N-(3-(4-(3-aminopropylamino)butylamino)propyl)hexadecane-1-sulfonamide]
0.34 | CCCCCCCCCCCCS(=O)(=O)NCCCNCCCCNCCCN [N-(3-(4-(3-aminopropylamino)butylamino)propyl)dodecane-1-sulfonamide]
2.1 | CCCCCCCCCCCCCCCCCCS(=O)(=O)NCCCNCCCCNCCCN [N1-octadecanylsulfonyl-1,14-diamino-5,10-diazabutadecane]
0.31 | CCCCCCCCCCS(=O)(=O)NCCCNCCCCNCCCN [N-(3-(4-(3-aminopropylamino)butylamino)propyl)decane-1-sulfonamide]
